Reference: patent US20230139171A1 (SITA Information Networking Computing UK Limited, priority 2019, published 2023)

Tests used:
Assay type in all cases: cell-based
human TLR7 = target: T1, human TLR7 (Homo sapiens, UniProt Q9NYK1); assay: TLR7 inhibition reporter assay (HEK-Blue cells, SEAP reporter, gardiquimod stimulation); settings: HEK-Blue cells overexpressing human TLR7, SEAP reporter, gardiquimod 7.5 μM; read-out: TLR7 IC50
T1 construct: host or cells: HEK-Blue cells
T1 sequence (Q9NYK1 27-1049): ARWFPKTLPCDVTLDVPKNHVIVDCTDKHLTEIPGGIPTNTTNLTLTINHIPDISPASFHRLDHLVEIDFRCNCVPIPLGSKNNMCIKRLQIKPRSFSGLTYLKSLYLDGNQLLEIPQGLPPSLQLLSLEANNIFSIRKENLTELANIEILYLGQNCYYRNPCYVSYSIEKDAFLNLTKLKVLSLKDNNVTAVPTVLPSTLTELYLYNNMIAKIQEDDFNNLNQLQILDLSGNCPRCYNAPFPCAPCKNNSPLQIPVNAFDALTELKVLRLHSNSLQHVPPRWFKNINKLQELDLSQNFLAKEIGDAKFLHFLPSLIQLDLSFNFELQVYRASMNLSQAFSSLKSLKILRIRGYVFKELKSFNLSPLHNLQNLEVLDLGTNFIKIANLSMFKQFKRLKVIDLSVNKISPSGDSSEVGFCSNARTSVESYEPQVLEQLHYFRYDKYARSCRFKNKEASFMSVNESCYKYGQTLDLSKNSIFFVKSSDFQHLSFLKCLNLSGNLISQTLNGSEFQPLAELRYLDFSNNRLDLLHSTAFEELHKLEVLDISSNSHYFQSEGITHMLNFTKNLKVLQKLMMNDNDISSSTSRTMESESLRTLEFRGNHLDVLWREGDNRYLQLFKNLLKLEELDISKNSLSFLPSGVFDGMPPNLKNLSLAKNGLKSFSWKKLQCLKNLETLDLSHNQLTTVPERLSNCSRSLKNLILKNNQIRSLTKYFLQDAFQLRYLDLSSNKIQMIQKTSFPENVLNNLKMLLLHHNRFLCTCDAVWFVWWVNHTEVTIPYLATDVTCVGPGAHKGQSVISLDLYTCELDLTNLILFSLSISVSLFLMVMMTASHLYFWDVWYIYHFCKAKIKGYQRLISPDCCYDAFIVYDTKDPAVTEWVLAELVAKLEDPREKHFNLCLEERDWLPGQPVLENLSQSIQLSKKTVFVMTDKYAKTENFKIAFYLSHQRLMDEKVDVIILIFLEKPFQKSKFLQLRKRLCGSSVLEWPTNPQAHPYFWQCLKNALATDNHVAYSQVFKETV
Summary of the method: (§1)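 Compound treatment: 30 min, RT, 0.05 nM–50 μM final. Agonist: TLR7 gardiquimod 7.5 μM; TLR8 R848 15.9 μM; TLR9 ODN2006 5 nM. Incubation 22 h, 37 °C, 5% CO2. Readout SEAP, HEK-Blue Detection.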

human TLR8 = target: T2, human TLR8 (Homo sapiens, UniProt Q9NR97); assay: TLR8 inhibition reporter assay (HEK-Blue cells, SEAP reporter, R848 stimulation); settings: HEK-Blue cells overexpressing human TLR8, SEAP reporter, R848 15.9 μM; read-out: TLR8 IC50
T2 construct: host or cells: HEK-Blue cells
T2 sequence (Q9NR97 27-1041): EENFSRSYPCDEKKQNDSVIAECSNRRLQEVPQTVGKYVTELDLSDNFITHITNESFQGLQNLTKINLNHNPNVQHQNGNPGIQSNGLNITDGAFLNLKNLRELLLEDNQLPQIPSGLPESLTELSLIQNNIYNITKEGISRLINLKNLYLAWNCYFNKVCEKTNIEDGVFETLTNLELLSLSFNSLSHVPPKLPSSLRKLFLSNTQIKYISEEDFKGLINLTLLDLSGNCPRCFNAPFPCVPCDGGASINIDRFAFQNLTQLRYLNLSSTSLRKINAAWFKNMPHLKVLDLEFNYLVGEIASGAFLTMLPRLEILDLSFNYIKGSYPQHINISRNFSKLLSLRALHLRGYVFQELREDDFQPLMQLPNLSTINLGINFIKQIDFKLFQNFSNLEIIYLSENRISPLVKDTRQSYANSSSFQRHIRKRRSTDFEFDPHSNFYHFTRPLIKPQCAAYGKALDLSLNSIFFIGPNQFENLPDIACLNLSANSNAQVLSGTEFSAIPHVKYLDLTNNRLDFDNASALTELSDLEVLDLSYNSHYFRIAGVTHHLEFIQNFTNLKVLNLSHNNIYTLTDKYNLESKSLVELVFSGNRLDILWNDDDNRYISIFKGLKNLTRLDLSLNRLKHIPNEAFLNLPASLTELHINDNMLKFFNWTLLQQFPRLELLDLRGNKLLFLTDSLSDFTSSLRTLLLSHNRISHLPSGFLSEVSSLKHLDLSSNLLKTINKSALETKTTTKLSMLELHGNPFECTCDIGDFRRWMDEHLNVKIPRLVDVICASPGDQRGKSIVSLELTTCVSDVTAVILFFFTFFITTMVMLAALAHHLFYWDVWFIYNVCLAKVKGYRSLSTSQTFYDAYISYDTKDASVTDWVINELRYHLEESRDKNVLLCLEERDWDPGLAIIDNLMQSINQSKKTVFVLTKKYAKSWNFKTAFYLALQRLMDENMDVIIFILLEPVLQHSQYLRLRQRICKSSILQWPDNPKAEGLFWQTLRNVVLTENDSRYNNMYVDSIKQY
Summary of the method: as §1

human TLR9 = target: T3, human TLR9 (Homo sapiens, UniProt Q9NR96); assay: TLR9 inhibition reporter assay (HEK-Blue cells, SEAP reporter, ODN2006 stimulation); settings: HEK-Blue cells overexpressing human TLR9, SEAP reporter, ODN2006 5 nM
T3 construct: host or cells: HEK-Blue cells
T3 sequence (Q9NR96 26-1032): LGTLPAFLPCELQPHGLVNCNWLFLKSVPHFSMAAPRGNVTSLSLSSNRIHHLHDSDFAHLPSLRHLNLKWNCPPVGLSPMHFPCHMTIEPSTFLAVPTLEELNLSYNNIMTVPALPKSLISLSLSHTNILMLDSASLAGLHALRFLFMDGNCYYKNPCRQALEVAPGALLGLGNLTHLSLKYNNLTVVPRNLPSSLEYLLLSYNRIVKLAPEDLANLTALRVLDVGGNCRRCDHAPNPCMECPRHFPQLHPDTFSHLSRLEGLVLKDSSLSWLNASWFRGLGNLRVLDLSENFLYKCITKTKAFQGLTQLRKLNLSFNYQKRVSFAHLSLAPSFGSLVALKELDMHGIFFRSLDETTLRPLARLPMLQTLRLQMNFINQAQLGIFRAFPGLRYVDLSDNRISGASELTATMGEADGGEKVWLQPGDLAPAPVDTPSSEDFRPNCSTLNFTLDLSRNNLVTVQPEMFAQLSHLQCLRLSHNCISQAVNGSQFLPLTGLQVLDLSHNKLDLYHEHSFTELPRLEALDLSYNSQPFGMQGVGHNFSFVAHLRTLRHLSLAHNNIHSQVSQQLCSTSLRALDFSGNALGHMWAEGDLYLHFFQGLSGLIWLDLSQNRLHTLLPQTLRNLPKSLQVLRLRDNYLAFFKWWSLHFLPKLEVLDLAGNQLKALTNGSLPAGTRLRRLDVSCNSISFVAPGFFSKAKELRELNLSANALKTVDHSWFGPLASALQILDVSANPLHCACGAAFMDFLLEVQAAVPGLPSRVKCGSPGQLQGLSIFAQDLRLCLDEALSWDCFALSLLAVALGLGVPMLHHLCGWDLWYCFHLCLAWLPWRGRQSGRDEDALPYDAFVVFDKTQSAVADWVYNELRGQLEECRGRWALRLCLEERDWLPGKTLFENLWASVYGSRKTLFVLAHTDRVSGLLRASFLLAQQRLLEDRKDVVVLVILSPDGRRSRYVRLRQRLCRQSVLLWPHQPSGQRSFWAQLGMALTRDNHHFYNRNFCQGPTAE
Method: TLR7/8/9 Inhibition Reporter Assays
HEK-Blue™-cells (Invivogen) overexpressing human TLR7, TLR8 or TLR9 receptors were used for screening inhibitors of these receptors using an inducible SEAP (secreted embryonic alkaline phosphatase) reporter gene under the control of the IFN-β minimal promoter fused to five NF-κB and AP-1-binding sites. Briefly, cells are seeded into Greiner 384 well plates (15000 cells per well for TLR7, 20,000 for TLR8 and 25,000 for TLR9) and then treated with test compounds in DMSO to yield a final dose response concentration range of 0.05 nM-50 μM. After a 30 minute compound pre-treatment at room temperature, the cells are then stimulated with a TLR7 ligand (gardiquimod at a final concentration of 7.5 μM), TLR8 ligand (R848 at a final concentration of 15.9 μM) or TLR9 ligand (ODN2006 at a final concentration of 5 nM) to activate NF-κB and AP-1 which induce the production of SEAP. After a 22 hour incubation at 37° C., 5% CO2, SEAP levels are determined with the addition of HEK-Blue™ Detection reagent (Invivogen), a cell culture medium that allows for detection of SEAP, according to manufacturer's specifications. The percent inhibition is determined as the % reduction in the HEK-Blue signal present in wells treated with agonist plus DMSO alone compared to wells treated with a known inhibitor.

IC50 (human TLR7) [nM]	IC50 (human TLR8) [nM]	IC50 (human TLR9) [µM]	Compound
1.23	4.75	7.22	CCN(C)C1CCC(c2nc3c(C(C)C)c(-c4cc(OC)c5ncnn5c4)[nH]c3s2)CC1 (single isomer, unassigned) [Example 72, N-ethyl-4-(6-isopropyl-5-(8-methoxy-[1,2,4]triazolo[1,5-a]pyridin-6-yl)-4H-pyrrolo[3,2-d]thiazol-2-yl)-N-methylcyclohexan-1-amine]
0.96	12.7	4.28	CCN(C)C1CCC(c2nc3c(C(C)C)c(-c4cc(OC)c5ncnn5c4)[nH]c3s2)CC1 (single isomer, unassigned) [Example 73, N-ethyl-4-(6-isopropyl-5-(8-methoxy-[1,2,4]triazolo[1,5-a]pyridin-6-yl)-4H-pyrrolo[3,2-d]thiazol-2-yl)-N-methylcyclohexan-1-amine]
0.71	3.44	1.91	CNC1CCC(c2nc3c(C(C)C)c(-c4cc(OC)c5ncnn5c4)[nH]c3s2)CC1 (single isomer, unassigned) [Example 74, 4-(6-isopropyl-5-(8-methoxy-[1,2,4]triazolo[1,5-a]pyridin-6-yl)-4H-pyrrolo[3,2-d]thiazol-2-yl)-N-methylcyclohexan-1-amine]
0.89	7.55	3.39	CNC1CCC(c2nc3c(C(C)C)c(-c4cc(OC)c5ncnn5c4)[nH]c3s2)CC1 (single isomer, unassigned) [Example 75, 4-(6-isopropyl-5-(8-methoxy-[1,2,4]triazolo[1,5-a]pyridin-6-yl)-4H-pyrrolo[3,2-d]thiazol-2-yl)-N-methylcyclohexan-1-amine]
0.9	2.62	1.45	COc1cc(-c2[nH]c3sc(C4CCC(N5CCC5)CC4)nc3c2C(C)C)cn2ncnc12 (single isomer, unassigned) [Example 76, 2-(4-(azetidin-1-yl)cyclohexyl)-6-isopropyl-5-(8-methoxy-[1,2,4]triazolo[1,5-a]pyridin-6-yl)-4H-pyrrolo[3,2-d]thiazole]
2.03	21.5	3.27	COc1cc(-c2[nH]c3sc(C4CCC(N5CCC5)CC4)nc3c2C(C)C)cn2ncnc12 (single isomer, unassigned) [Example 77, 2-(4-(azetidin-1-yl)cyclohexyl)-6-isopropyl-5-(8-methoxy-[1,2,4]triazolo[1,5-a]pyridin-6-yl)-4H-pyrrolo[3,2-d]thiazole]
0.59	1.64	2.87	COc1cc(-c2[nH]c3sc(C4CCC(NC(C)C)CC4)nc3c2C(C)C)cn2ncnc12 (single isomer, unassigned) [Example 78, N-isopropyl-4-(6-isopropyl-5-(8-methoxy-[1,2,4]triazolo[1,5-a]pyridin-6-yl)-4H-pyrrolo[3,2-d]thiazol-2-yl)cyclohexan-1-amine]
2.29	9.23	4.12	COc1cc(-c2[nH]c3sc(C4CCC(NC(C)C)CC4)nc3c2C(C)C)cn2ncnc12 (single isomer, unassigned) [Example 79, N-isopropyl-4-(6-isopropyl-5-(8-methoxy-[1,2,4]triazolo[1,5-a]pyridin-6-yl)-4H-pyrrolo[3,2-d]thiazol-2-yl)cyclohexan-1-amine]
4.69	43.6	> 50	COc1cc(-c2[nH]c3sc(C4CCC(N5CCS(=O)(=O)CC5)CC4)nc3c2C(C)C)cn2ncnc12 (single isomer, unassigned) [Example 82, 4-(4-(6-isopropyl-5-(8-methoxy-[1,2,4]triazolo[1,5-a]pyridin-6-yl)-4H-pyrrolo[3,2-d]thiazol-2-yl)cyclohexyl)thiomorpholine 1,1-dioxide]
